Experimental findings from patent US9187471B2, “Pyrido [4,3-b] indole and pyrido [3,4-b] indole derivatives and methods of use” (Medivation Technologies, Inc., priority 2010, dated 2015) are described below.

Test [1] deals with T1, human recombinant histamine H1 receptor (Homo sapiens, UniProt P35367).
T1 construct: expressed in transfected cells; host or cells: CHO-K1
In words: Histamine H1 radioligand binding ([3H]Pyrilamine). The settings on record: read-out: Histamine H1 Binding (1 μM), percent inhibition of specific binding; compound at 1 μM; 1.2 nM [3H]Pyrilamine. The method, then: To evaluate in radioligand binding assays the activity of compounds of the invention, human recombinant histamine H1 receptor expressed in Chinese hamster ovary (CHO) K1 cells (De Backer, M. et al, Biochem. Biophys. Res. Comm. 197(3):1601, 1993) in a modified Tris-HCl buffer (50 mM Tris-HCl, pH 7.4, 2 mM MgCl2, 100 mM NaCl, 250 mM Sucrose) was used. […] Non-specific binding was estimated in the presence of 1 μM Pyrilamine. Receptor proteins were filtered and washed, the filters were then counted to determine [^3H]Pyrilamine specifically bound. […] Biochemical assay results are presented as the percent inhibition of specific binding in Table 2.

The target of test [2] is T2, rat adrenergic α1A receptor (Rattus norvegicus, UniProt P43140).
T2 construct: rat adrenergic α1A receptor obtained from Wistar Rat submaxillary glands; from tissue; host or cells: Wistar rat submaxillary glands
T2 sequence (P43140 1-466): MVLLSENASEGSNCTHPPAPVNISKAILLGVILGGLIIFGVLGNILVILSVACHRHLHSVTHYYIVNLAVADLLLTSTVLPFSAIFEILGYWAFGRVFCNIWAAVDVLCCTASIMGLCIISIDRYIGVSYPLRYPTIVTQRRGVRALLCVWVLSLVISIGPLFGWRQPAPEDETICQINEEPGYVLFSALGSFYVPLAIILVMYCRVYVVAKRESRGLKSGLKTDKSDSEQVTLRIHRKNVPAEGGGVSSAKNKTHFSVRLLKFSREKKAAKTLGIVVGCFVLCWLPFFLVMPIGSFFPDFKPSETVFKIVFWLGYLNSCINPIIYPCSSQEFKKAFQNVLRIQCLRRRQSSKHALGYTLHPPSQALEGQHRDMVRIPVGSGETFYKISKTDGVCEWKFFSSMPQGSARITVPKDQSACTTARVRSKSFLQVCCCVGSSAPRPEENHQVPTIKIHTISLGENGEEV
In words: Adrenergic α1A radioligand binding ([3H]Prazosin). The settings on record: read-out: Adrenergic (0.1 μM) a1A, percent inhibition of specific binding; compound at 0.1 μM; 0.25 nM [3H]Prazosin. The method, then: To evaluate in radioligand binding assays the activity of compounds of the invention, rat adrenergic α1A receptor obtained from Wistar Rat submaxillary glands (Michel, A. et al, Br. J. Pharmacol. 98:883, 1989) in a modified Tris-HCl buffer (50 mM Tris-HCl buffer, pH 7.4, 0.5 mM EDTA) was used. Compounds of the invention were incubated with 0.25 nM [^3H]Prazosin for 60 min at 25° C. Non-specific binding was estimated in the presence of 10 μM phentolamine Receptor proteins were filtered and washed, the filters were then counted to determine [^3H]Prazosin specifically bound. […] Compounds of the invention were tested in this biochemical assay and percent inhibition of specific binding was determined.

For test [3], the target named is T3, human recombinant adrenergic α2C receptor (Homo sapiens, UniProt P18825).
T3 construct: expressed in transfected cells; host or cells: insect Sf9 cells
T3 sequence (P18825 1-462): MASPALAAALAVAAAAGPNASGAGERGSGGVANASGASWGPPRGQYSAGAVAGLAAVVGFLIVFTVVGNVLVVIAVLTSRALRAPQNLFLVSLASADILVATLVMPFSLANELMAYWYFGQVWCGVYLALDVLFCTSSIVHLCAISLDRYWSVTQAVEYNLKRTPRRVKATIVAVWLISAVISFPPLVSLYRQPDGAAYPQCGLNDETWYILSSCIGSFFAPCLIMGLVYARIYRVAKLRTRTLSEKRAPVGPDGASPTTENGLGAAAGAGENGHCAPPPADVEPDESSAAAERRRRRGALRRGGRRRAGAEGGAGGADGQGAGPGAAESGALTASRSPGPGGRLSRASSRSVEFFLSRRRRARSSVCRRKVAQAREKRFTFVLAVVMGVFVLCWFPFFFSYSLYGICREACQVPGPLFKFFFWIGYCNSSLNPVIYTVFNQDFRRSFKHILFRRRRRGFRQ
The test can be described thus: Adrenergic α2C radioligand binding ([3H]MK-912). The settings on record: read-out: Adrenergic (0.1 μM) a2C, percent inhibition of specific binding; compound at 0.1 μM; 1 nM [3H]MK-912. The method, then:
To evaluate in radioligand binding assays the activity of compounds of the invention, human recombinant adrenergic α2C receptor expressed in insect Sf9 cells (Uhlen, S. et al, J. Pharmacol. Exp. Ther. 271:1558, 1994) in a modified Tris-HCl buffer (50 mM Tris-HCl, pH 7.4, 12.5 mM MgCl2, 2 mM EDTA) was used. Compounds of the invention were incubated with 1 nM [^3H]MK-912 for 60 min at 25° C. Non-specific binding was estimated in the presence of 10 μM WB-4101. Receptor proteins were filtered and washed, the filters were then counted to determine [^3H]MK-912 specifically bound. […] Compounds of the invention were tested in this biochemical assay and percent inhibition of specific binding was determined.

The target of test [4] is T4, human recombinant dopamine D2L receptor (Homo sapiens, UniProt P14416).
T4 construct: expressed in transfected cells; host or cells: CHO
The test can be described thus: Dopamine D2L radioligand binding ([3H]Spiperone). Conditions: 0.16 nM [3H]Spiperone; for inhibition at 1 µM: read-out: Dopamine D2L (1 μM), percent inhibition of specific binding, compound at 1 μM. As for the experimental part: Non-specific binding was estimated in the presence of 10 μM Haloperidol. Receptor proteins were filtered and washed, the filters were then counted to determine [^3H]Spiperone specifically bound.

The target of test [5] is T5, human recombinant serotonin (5-Hydroxytryptamine) 5-HT2A receptor (Homo sapiens, UniProt P28223).
T5 construct: expressed in transfected cells; host or cells: CHO-K1
The test can be described thus: Serotonin 5-HT2A radioligand binding ([3H]Ketanserin). The settings on record: read-out: Inhibition of ligand binding, Serotonin 5-HT2A (percent inhibition of specific binding). As for the experimental part:
Compounds of the invention were incubated with 0.5 nM [^3H]Ketanserin for 60 min at 25° C. Non-specific binding was estimated in the presence of 1 μM Mianserin. Receptor proteins were filtered and washed, the filters were then counted to determine [^3H]Ketanserin specifically bound.

In test [6] the target is T6, human recombinant serotonin (5-Hydroxytryptamine) 5-HT2C receptor (Homo sapiens, UniProt P28335).
T6 construct: expressed in transfected cells; host or cells: CHO-K1
T6 sequence (P28335 33-458): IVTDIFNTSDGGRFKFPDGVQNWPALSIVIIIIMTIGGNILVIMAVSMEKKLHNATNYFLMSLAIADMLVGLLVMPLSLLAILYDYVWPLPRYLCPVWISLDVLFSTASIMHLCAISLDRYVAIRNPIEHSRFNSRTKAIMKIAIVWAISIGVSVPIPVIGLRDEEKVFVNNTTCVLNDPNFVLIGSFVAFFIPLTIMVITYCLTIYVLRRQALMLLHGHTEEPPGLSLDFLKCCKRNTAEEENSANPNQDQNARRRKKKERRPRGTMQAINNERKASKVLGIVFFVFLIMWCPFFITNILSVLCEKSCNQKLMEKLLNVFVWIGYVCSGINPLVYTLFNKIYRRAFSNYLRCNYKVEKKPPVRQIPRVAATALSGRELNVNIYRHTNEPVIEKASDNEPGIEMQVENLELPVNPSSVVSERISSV
In words: Serotonin 5-HT2C radioligand binding ([3H]Mesulergine). Conditions: compound at 0.1 μM; read-out: Inhibition of ligand binding, Serotonin 5-HT2C (percent inhibition of specific binding). The method, then:
Compounds of the invention were incubated with 1 nM [^3H]Mesulergine for 60 min at 25° C. Non-specific binding was estimated in the presence of 1 μM Mianserin. Receptor proteins were filtered and washed, the filters were then counted to determine [^3H]Mesulergine specifically bound.

For test [7], the target named is T7, human recombinant serotonin (5-Hydroxytryptamine) 5-HT6 receptor (Homo sapiens, UniProt P50406).
T7 construct: expressed in transfected cells; host or cells: HeLa
The test can be described thus: Serotonin 5-HT6 radioligand binding ([3H]LSD). Conditions: compound at 0.1 μM; for inhibition at 0.1 µM: read-out: Inhibition of ligand binding, Serotonin 5-HT6 (percent inhibition of specific binding). The text has this: Receptor proteins were filtered and washed, the filters were then counted to determine [3H]LSD specifically bound.

The target in test [8] is T8, human recombinant serotonin (5-Hydroxytryptamine) 5-HT7 receptor (Homo sapiens, UniProt P34969).
T8 construct: expressed in transfected cells; host or cells: CHO
The test can be described thus: Serotonin 5-HT7 radioligand binding ([3H]LSD). Conditions: compound at 0.1 μM; for inhibition at 0.1 µM: read-out: Inhibition of ligand binding, Serotonin 5-HT7 (percent inhibition of specific binding). The method, then:
Lysergic acid diethylamide (LSD) for 120 min. at 25° C. […] Receptor proteins were filtered and washed, the filters were then counted to determine [^3H]LSD specifically bound.

In test [9] the target is T9, human recombinant serotonin (5-Hydroxytryptamine) 5-HT5A receptor (Homo sapiens, UniProt P47898).
T9 construct: expressed in transfected cells; host or cells: CHO-K1
The test can be described thus: Serotonin 5-HT5A radioligand binding ([3H]LSD). Conditions: compound at 0.1 μM. As for the experimental part:
Compounds of the invention were incubated with 1.7 nM [^3H]Lysergic acid diethylamide (LSD) for 60 min at 37° C. […] Receptor proteins were filtered and washed, the filters were counted to determine [^3H]LSD specifically bound.

The structures appear in SMILES notation. Like-named read-outs stand apart in the source and are kept apart here.

T5 sequence (P28223 whole entry): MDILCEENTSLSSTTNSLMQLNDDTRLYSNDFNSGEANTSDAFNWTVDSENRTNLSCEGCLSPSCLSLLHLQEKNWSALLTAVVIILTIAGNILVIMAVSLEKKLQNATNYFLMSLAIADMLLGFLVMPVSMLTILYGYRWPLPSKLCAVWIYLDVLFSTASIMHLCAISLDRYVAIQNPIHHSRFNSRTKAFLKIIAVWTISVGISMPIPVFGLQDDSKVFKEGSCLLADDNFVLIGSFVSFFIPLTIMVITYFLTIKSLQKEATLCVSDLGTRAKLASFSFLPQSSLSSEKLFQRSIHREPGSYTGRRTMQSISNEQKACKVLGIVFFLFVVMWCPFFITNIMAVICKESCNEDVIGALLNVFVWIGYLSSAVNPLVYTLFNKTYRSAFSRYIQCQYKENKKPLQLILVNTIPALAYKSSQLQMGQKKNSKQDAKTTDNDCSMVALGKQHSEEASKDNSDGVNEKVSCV
T4 sequence (P14416 whole entry): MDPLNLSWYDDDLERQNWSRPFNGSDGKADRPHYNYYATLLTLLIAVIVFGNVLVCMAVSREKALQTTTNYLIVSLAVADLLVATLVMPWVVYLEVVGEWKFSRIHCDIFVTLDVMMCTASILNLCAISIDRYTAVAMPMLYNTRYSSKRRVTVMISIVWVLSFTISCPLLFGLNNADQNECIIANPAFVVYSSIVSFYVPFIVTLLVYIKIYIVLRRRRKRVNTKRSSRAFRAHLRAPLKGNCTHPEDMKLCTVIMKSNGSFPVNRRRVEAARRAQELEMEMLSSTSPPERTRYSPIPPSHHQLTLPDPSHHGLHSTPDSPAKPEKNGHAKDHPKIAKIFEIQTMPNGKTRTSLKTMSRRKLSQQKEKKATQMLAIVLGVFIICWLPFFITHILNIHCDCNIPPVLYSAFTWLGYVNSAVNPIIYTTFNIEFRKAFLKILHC
T8 sequence (P34969 whole entry): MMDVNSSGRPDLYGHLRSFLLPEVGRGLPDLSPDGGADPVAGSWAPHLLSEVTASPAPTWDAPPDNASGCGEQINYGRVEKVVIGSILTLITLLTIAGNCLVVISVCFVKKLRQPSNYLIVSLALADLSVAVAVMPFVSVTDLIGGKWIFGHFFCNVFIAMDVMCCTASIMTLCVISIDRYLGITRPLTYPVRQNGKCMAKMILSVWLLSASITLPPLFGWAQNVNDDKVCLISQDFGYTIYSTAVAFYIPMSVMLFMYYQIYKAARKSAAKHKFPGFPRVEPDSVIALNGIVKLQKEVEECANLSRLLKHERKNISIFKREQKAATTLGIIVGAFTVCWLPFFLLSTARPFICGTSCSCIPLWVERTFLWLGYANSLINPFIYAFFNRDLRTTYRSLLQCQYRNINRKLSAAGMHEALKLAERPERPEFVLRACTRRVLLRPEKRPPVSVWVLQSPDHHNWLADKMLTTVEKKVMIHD
T7 sequence (P50406 whole entry): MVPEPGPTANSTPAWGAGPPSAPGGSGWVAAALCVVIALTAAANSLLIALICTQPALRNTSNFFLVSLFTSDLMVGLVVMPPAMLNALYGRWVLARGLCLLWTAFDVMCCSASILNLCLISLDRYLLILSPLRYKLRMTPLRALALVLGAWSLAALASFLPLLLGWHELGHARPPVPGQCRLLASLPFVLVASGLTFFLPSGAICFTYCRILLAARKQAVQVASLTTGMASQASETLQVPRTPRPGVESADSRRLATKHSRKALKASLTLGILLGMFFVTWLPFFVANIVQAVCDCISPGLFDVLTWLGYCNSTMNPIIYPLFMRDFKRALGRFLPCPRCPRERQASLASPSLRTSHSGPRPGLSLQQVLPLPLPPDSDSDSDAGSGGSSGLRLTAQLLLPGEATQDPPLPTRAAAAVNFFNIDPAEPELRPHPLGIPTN
T1 sequence (P35367 whole entry): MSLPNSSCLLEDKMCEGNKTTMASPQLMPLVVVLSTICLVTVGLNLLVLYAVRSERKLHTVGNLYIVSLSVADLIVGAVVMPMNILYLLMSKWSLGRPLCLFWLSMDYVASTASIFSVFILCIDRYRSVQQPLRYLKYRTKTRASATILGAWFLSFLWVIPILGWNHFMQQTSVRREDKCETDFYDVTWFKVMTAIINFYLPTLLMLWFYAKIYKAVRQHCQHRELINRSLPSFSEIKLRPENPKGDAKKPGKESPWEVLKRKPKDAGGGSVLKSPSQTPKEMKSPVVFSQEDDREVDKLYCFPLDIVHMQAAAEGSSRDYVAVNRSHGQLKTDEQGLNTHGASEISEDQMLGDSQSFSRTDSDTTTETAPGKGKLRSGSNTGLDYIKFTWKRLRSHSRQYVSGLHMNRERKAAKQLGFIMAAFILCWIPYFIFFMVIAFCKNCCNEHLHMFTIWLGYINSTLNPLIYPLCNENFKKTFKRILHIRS
T9 sequence (P47898 whole entry): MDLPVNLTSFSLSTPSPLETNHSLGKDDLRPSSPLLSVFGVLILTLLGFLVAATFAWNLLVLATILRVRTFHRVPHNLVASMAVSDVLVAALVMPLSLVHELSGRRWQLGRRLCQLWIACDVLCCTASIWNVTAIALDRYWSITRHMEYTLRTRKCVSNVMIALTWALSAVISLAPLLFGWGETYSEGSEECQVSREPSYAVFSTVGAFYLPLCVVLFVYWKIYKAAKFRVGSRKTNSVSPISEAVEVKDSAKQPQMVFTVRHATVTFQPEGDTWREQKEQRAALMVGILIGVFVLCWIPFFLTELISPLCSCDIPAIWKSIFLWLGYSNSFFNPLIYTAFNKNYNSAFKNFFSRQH

As to `Cc1ccc2c(c1)c1c(n2-c2ccccc2-c2ccncc2)CCN(C)C1` [Compound 5, 2,8-dimethyl-5-(2-pyridin-4-yl-phenyl)-2,3,4,5-tetrahydro-1H-pyrido[4,3-b]indole], the results for the inhibition at 1 µM in test [1] and in test [4] were 38% and 2%, respectively. In addition, the inhibition at 0.1 µM in test [2] turned out to be 24%; in test [3], 11%; in test [5] (compound at 0.1 μM), 83%; in test [6], 81%; in [7], 26%; in test [8], 64%.
For `Cc1ccc2c(c1)c1c(n2-c2ccccc2-c2ccc(F)cc2)CCN(C)C1` [Compound 10, 5-(4′-fluorobiphenyl-2-yl)-2,8-dimethyl-2,3,4,5-tetrahydro-1H-pyrido[4,3-b]indole], the values for the inhibition at 1 µM in test [1] and in [4] were 82% and 26%, respectively. Moreover, the inhibition at 0.1 µM is 59% in test [2]; 67% in test [3]; 93% in test [5] (compound at 0.1 μM); 94% in [6]; 57% in test [7]; 73% in [8].
As for `Cc1ccc2c(c1)c1c(n2-c2ccsc2)CCN(C)C1` [Compound 14, 2,8-dimethyl-5-thiophen-3-yl-2,3,4,5-tetrahydro-1H-pyrido[4,3-b]indole], the inhibition at 1 µM came to 86% in [1] and 50% in test [4]. Also, the inhibition at 0.1 µM in test [2] was 30%; in test [3], 4%; in test [5] (compound at 0.1 μM), 97%; in [6], 95%; in test [7] it was 82%; in test [8], 61%.
Turning to `Cc1ccc2c(c1)c1c(n2-c2ccoc2)CCN(C)C1` [Compound 15, 5-furan-3-yl-2,8-dimethyl-2,3,4,5-tetrahydro-1H-pyrido[4,3-b]indole], the inhibition at 1 µM in test [1] was 80%; in [4] it was 19%. Also, the inhibition at 0.1 µM in test [2] stood at 28%; in test [3] it was 7%; in [5] (compound at 0.1 μM) it was 72%; in test [6], 77%; in test [7] it was 51%; in test [8] it was 57%.
On to `Cc1ccc2c(c1)c1c(n2-c2cccs2)CCN(C)C1` [Compound 16, 2,8-dimethyl-5-thiophen-2-yl-2,3,4,5-tetrahydro-1H-pyrido[4,3-b]indole], for which the values for the inhibition at 1 µM in test [1] and in [4] were 86% and 49%, respectively. The inhibition at 0.1 µM in test [2] worked out at 7%; in [3], 17%; in test [5] (compound at 0.1 μM) it was 94%; in [6], 89%; in test [7] it was 74%; in test [8] it was 62%.
`Cc1ccc2c(c1)c1c(n2-c2ccccc2-c2ccc(O)nc2)CCN(C)C1` [Compound No. 80, 5-(2-(2,8-dimethyl-3,4-dihydro-1H-pyrido[4,3-b]indol-5(2H)-yl)phenyl)pyridin-2-ol]: the inhibition at 1 µM in test [1] stood at 28%; in [4], 2%. The inhibition at 0.1 µM was 15% in [2], -6% in test [3], 28% in test [5] and 11% in test [6]. For the same compound, the “Inhibition of ligand binding, Serotonin 5-HT5A (percent inhibition of specific binding)” value in [9] turned out to be 25%. For the same compound, the “Inhibition of ligand binding, Serotonin 5-HT6 (percent inhibition of specific binding)” value in test [7] is on record as −1%. In addition, the “Inhibition of ligand binding, Serotonin 5-HT7 (percent inhibition of specific binding)” value in test [8] was found to be 41%.
Take `Cc1cc(C)c2c(c1)c1c(n2-c2cscc2-c2ccncc2)CCN(C)C1` [Compound No. 149]: in test [1], the inhibition at 1 µM was -5%. Moreover, the inhibition at 0.1 µM was 14% in [2]; 2% in test [3]; 5% in test [4] (read-out: Dopamine D2L (0.1 μM), percent inhibition of specific binding, compound at 0.1 μM); 45% in test [5] (compound at 0.1 μM); -13% in test [9] (read-out: Inhibition of ligand binding, Serotonin 5-HT5A (percent inhibition of specific binding)); 93% in test [7]. In addition, the inhibition at 0.1 µM in [8] was determined as 11%.
